Measured values taken from patent publication US10533006B2, “Nitrogen-containing heterocycle and carbocycle derivatives having TrkA inhibitory activity” (Shionogi & Co., Ltd., priority 2016, dated 2020).
Like-named read-outs stand apart in the source and are kept apart here.

What was measured:
[1] = molecular target: T1, human TrkA (Homo sapiens, UniProt P04629); test: Human TrkA inhibition assay; format: biochemical; conditions: human TrkA phosphorylation inhibition, ATP 500 μmol/L
T1 construct: purchased Lifetechnologies PV3144
T1 sequence (P04629 33-796): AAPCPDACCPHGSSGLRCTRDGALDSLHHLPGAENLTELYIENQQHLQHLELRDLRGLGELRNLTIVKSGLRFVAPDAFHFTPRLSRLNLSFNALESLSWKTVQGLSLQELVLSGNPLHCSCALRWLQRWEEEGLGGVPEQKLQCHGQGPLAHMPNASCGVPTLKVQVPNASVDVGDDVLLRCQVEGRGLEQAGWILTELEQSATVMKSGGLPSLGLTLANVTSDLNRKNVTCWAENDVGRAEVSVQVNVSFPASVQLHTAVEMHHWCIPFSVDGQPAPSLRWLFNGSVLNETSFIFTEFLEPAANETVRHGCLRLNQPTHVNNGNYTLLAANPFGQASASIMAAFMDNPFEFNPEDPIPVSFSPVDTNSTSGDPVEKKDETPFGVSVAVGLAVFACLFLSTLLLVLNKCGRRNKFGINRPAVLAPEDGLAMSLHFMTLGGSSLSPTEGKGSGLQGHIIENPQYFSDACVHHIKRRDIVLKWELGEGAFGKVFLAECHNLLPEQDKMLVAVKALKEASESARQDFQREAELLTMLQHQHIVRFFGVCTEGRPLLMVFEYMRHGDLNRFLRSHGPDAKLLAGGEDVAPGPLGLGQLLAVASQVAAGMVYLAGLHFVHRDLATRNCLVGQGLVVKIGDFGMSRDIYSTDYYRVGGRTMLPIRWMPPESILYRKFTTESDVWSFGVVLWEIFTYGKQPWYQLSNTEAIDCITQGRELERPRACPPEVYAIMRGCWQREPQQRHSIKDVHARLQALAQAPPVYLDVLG
Outline: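 Human TrkA (1 nmol/L final) preincubated 15 min with compound, then FL-peptide 27 (1.5 μmol/L) and ATP (500 μmol/L) added; 120 min at 37 °C in HEPES/MgCl2/DTT buffer. Mobility-shift measurement of phosphorylated vs non-phosphorylated substrate; IC50 by logistic regression over 3-fold dilution series.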

[2] = molecular target: T2, hERG channel (IKr) (Homo sapiens, UniProt Q12809); test: hERG test (whole cell patch clamp, IKr); format: cell-based; conditions: CHO cells expressing hERG channel, pH 7.4, 30 μmol/L of test compound, read-out: % inhibition of tail peak current (IKr)
T2 construct: expressed in transfected cells; host or cells: CHO cells
T2 sequence (Q12809 whole entry): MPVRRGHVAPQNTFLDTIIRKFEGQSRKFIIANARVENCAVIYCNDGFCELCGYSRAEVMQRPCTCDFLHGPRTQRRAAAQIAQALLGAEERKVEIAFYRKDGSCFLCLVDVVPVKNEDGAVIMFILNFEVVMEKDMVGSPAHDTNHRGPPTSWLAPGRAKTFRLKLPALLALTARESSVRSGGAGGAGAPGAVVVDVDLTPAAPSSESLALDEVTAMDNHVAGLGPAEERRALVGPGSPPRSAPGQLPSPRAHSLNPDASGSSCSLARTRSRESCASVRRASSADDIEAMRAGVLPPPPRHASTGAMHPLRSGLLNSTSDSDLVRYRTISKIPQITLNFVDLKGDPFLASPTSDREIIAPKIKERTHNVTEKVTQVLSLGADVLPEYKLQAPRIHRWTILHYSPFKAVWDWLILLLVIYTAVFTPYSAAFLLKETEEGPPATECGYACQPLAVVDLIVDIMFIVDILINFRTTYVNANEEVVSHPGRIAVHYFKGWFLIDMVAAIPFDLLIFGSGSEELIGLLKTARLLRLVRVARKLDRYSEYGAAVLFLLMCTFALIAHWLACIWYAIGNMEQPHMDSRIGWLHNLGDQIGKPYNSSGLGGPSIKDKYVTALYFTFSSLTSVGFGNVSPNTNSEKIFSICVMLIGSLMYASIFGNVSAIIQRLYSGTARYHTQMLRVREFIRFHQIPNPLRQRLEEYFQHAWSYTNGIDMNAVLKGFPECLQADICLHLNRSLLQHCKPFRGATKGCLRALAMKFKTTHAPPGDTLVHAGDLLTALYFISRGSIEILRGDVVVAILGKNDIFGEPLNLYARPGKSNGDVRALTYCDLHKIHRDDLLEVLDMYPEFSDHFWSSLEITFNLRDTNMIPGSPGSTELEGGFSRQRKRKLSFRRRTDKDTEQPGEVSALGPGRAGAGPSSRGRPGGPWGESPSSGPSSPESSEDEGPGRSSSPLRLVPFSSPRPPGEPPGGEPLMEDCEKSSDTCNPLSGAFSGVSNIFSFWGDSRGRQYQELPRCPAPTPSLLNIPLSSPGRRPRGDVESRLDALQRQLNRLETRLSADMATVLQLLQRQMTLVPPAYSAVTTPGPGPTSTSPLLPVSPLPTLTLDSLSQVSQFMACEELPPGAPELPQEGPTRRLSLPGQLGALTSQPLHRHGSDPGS
From the text: For the purpose of assessing risk of an electrocardiogram QT interval prolongation of the compound of the present invention, effects of the compound of the present invention on delayed rectifier K+ current (IKr), which plays an important role in the ventricular repolarization process, was studied using CHO cells expressing human ether-a-go-go related gene (hERG) channel.
After a cell was retained at a membrane potential of −80 mV by whole cell patch clamp method using an automated patch clamp system (QPatch; Sophion Bioscience A/S) and gave a leak potential of −50 mV, IKr induced by depolarization pulse stimulation at +20 mV for 2 seconds, and further, repolarization pulse stimulation at −50 mV for 2 seconds, was recorded. A vehicle, which is the 0.1-0.3% dimethyle sulfoxide solution in extracellular solution (NaCl: 145 mmol/L, KCl: 4 mmol/L, CaCl2: 2 mmol/L, MgCl2: 1 mmol/L, glucose: 10 mmol/L, HEPES (4-(2-hydroxyethyl)-1-piperazineethanesulfonic acid): 10 mmol/L, pH7.4), or the compound of the present invention had been dissolved at an objective concentration in the extracellular solution is applied to the cell at room temperature for 7 minutes or more. From the recording IKr, an absolute value of the tail peak current was measured based on the current value at the resting membrane potential using analysis software (QPatch assay software; Sophion Bioscience A/S). Further, the % inhibition of tail peak current for the compound of the present invention relative to the tail peak current after application of the vehicle is calculated to assess influence of the compound of the present invention on IKr.

[3] = molecular target: T3, CYP3A4 (Homo sapiens, UniProt P08684); test: CYP3A4 (MDZ) MBI test; format: in vitro ADME; conditions: pooled human liver microsomes, midazolam 1-hydroxylation, preincubation 0 vs 30 min
T3 construct: from tissue; host or cells: pooled human liver microsomes
T3 sequence (P08684 whole entry): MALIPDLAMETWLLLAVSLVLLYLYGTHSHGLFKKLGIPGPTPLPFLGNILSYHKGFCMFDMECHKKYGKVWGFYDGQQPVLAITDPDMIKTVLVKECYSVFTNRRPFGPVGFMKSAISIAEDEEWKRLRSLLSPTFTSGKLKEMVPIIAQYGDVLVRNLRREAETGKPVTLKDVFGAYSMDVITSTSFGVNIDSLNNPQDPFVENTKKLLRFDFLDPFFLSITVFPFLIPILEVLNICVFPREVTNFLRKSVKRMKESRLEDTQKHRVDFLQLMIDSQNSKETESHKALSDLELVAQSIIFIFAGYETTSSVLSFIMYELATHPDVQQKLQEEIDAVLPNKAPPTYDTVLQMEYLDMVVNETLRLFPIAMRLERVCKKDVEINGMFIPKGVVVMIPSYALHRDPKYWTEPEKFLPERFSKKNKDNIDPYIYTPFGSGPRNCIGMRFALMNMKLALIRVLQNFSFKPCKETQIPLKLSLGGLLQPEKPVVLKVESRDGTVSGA
Procedure: CYP3A4 (MDZ) MBI test is a test of investigating mechanism based inhibition potential on CYP3A4 by the enhancement of inhibitory degree of a metabolic reaction caused by the compound of the present invention. CYP3A4 inhibition was evaluated using pooled human liver microsomes by 1-hydroxylation reaction of midazolam (MDZ) as a marker reaction.
The reaction conditions are as follows: substrate, 10 μmol/L MDZ; pre-reaction time, 0 or 30 minutes; substrate reaction time, 2 minutes; reaction temperature, 37° C.; protein content of pooled human liver microsomes, at pre-reaction time 0.5 mg/mL, at reaction time […] (at 10-fold dilution); concentrations of the compound of the present invention, 1, 5, 10, 20 μmol/L (four points).
Pooled human liver microsomes and a solution of the compound of the present invention in K-Pi buffer (pH 7.4) as a pre-reaction solution were added to a 96-well plate at the composition of the pre-reaction. A part of pre-reaction solution was transferred to another 96-well plate, and 1/10 diluted by K-Pi buffer containing a substrate. NADPH as a co-factor was added to initiate a reaction as a marker reaction (preincubation 0 min). After a predetermined time of a reaction, methanol/acetonitrile=l/1 (v/v) solution was added to stop the reaction. In addition, NADPH was added to a remaining pre-reaction solution to initiate a pre-reaction (preincubation 30 min). After a predetermined time of a pre-reaction, a part was transferred to another 96-well plate, and 1/10 diluted by K-Pi buffer containing a substrate to initiate a reaction as a marker reaction. After a predetermined time of a reaction, methanol/acetonitrile=1/1 (v/v) solution was added to stop the reaction. After centrifuged at 3000 rpm for 15 minutes, 1-hydroxymidazolam in the supernatant was quantified by LC/MS/MS.
The sample adding DMSO as a solvent to a reaction system instead of a solution dissolving the compound of the present invention was adopted as a control (100%). Remaining activity (%) was calculated at each concentration of the compound of the present invention compared to a control, and IC value was calculated by reverse-presumption by a logistic model using a concentration and an inhibition rate. Shifted IC value was calculated as “IC of preincubation at 0 min/IC of preincubation at 30 min”. When a shifted IC is 1.5 or more, this is defined as positive. When a shifted IC is 1.0 or less, this is defined as negative.

Row | IC50 ([1]; read-out: IC50_nM) | IC50 ([1]; read-out: IC50 value) | Compound | inhibition at 30 μmol/L [2] | mechanism based inhibition of CYP3A4 (shifted IC) [3]
1 | < 100 nM | – | COCCN1C[C@@H](NC(=O)Nc2c(C)c(-c3cnn(C)c3)nn2-c2ccccc2)[C@H](c2cnc(F)c(F)c2)C1 (racemic) [Compound I-5] | 35.3% | Negative (When a shifted IC is 1.0 or less, this is defined as negative)
2 | – | 1.8 nM | COCC[C@@H]1C[C@@H](NC(=O)Nc2c(C)c(-c3cnc(C)nc3)nn2-c2ccccc2)[C@H](c2ccnc(F)c2)C1 [Compound I-164] | – | Negative (When a shifted IC is 1.0 or less, this is defined as negative)
3 | – | 0.92 nM | COCC[C@@H]1C[C@@H](NC(=O)Nc2c(C)c(-c3cnc(C)nc3)nn2-c2ccccc2)[C@H](c2ccnc(F)c2)N1C [Compound I-173] | – | Negative (When a shifted IC is 1.0 or less, this is defined as negative)
4 | < 100 nM | – | COCC[C@@H]1C[C@@H](NC(=O)Nc2c(C)c(-c3cnn(C)c3)nn2-c2ccccc2)[C@H](c2ccnc(F)c2)N1C [Compound I-68] | 12.8% | Negative (When a shifted IC is 1.0 or less, this is defined as negative)
